A short description of series [1]: Plasma protein binding in human assessed as unbound fraction incubated for 24 hrs by equilibrium dialysis based Rapidfire-QToF mass spectrometric analysis. It is filed as ADME, cell-free.
Series [2] is described as follows: Apparent permeability across apical to basolateral side in cMDR1 knockout MDCK-II cells incubated upto 240 mins by RF-QToF analysis. Particulars: dog. It is filed as ADME, cell-based, Canis lupus familiaris.
Series [3] concerns the target Lysophosphatidic acid receptor 1 (Homo sapiens, UniProt Q92633). Kind of series: Antagonist activity at LPA1 receptor in serum starved human TWNT-4 cells assessed as nuclear translocation pre-incubated for 1 hr followed by LPA stimulation and measured after 30 min by MRTF-A assay. The format is cell-based.
Series [4] in a line: Lipophilicity, logD of compound at pH 7.4. The format is physicochemical. Particulars: buffer.

Where only a bound is given, the exact number is not on record here.

Sequence of Lysophosphatidic acid receptor 1 (Q92633 whole entry): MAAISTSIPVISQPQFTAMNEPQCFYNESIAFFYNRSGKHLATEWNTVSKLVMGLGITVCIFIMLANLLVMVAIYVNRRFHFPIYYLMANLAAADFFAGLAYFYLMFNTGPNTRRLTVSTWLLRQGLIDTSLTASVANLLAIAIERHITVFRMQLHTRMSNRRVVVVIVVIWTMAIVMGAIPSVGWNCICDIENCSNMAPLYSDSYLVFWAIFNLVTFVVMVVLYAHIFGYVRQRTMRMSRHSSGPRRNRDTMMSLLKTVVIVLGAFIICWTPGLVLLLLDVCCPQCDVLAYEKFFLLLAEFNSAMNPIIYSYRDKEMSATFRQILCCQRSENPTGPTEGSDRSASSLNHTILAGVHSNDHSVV

Turning to `Cc1nc(-c2nnn(C)c2NC(=O)O[C@H](C)c2cccnc2F)ccc1NS(C)(=O)=O`, in series [1], the fraction unbound at 24 h was determined as 0.38. The Papp A→B at 4 h in series [2] amounted to 5.6 ×10⁻⁶ cm/s. For the same molecule, in series [3], the EC50 was determined as 1370 nM. In series [4], this molecule yielded a logD of 1.4.
The matching figures for `Cn1nnc(-c2ccc(NS(C)(=O)=O)cn2)c1NC(=O)O[C@H](CF)c1ccccc1`: 0.27, 5 ×10⁻⁶ cm/s, 81 nM and 1.6.
For `C[C@@H](OC(=O)Nc1c(-c2ccc(NS(C)(=O)=O)cn2)nnn1C)c1cccnc1F` the same measures were 0.3, 4.4 ×10⁻⁶ cm/s, 186 nM and 1.1.
The matching figures for `C[C@@H](OC(=O)Nc1c(-c2ccc(NC(=O)C3(C(F)F)CC3)cn2)nnn1C)c1cc(F)cnc1F`: 0.56, 40 ×10⁻⁶ cm/s, 5250 nM and 2.4.
`C[C@@H](OC(=O)Nc1c(-c2ccc(NC(=O)C3(C#N)CC3)cn2)nnn1C)c1cc(F)cnc1F`: the fraction unbound at 24 h in series [1] is 0.46. For the same molecule, the Papp A→B at 4 h in series [2] is 21 ×10⁻⁶ cm/s. Moreover, in series [3], the EC50 turned out to be 37 nM. The same molecule displayed a logD in series [4] of 1.9.
As to `C[C@@H](OC(=O)Nc1c(-c2ccc(NC(=O)C(F)(F)F)cc2)nnn1C)c1ccccc1Cl`, the EC50 in series [3] was found to be 20 nM. This molecule gave a logD in series [4] of 3.3.
Take `C[C@@H](OC(=O)Nc1c(-c2ccc(NS(C)(=O)=O)cn2)nnn1C)c1cccnc1Cl`: in series [1], the fraction unbound at 24 h worked out at 0.26. Besides, the Papp A→B at 4 h in series [2] was 2.8 ×10⁻⁶ cm/s. Further, the concentration for a half-maximal effect (EC50) in series [3] worked out at 108 nM. The same molecule registered a logD in series [4] of 1.3.
With `C[C@@H](OC(=O)Nc1c(-c2ccc(N)cn2)nnn1C)c1cc(F)cnc1F.Cl`, in series [1], the fraction unbound at 24 h worked out at 0.71. In series [2], the Papp A→B at 4 h is 15 ×10⁻⁶ cm/s. Moreover, in series [3], the EC50 is 7920 nM. In series [4], this molecule had a logD of 1.3.
With `CC(=O)N(C)c1ccc(-c2nnn(C)c2NC(=O)O[C@H](C)c2ccccc2Cl)cc1`, the EC50 in series [3] came out at 7530 nM. This molecule also registered a logD in series [4] of 2.2.
For `C[C@@H](OC(=O)Nc1c(-c2ccc(O)cc2)nnn1C)c1ccccc1Cl` the same measures were 237 nM and 2.5.
The matching figures for `C[C@@H](OC(=O)Nc1c(-c2ccc(NS(C)(=O)=O)cc2)nnn1C)c1ccccc1Cl`: 12 nM and 2.4.
Regarding `Cc1nc(-c2nnn(C)c2NC(=O)O[C@H](C)c2ccccc2)ccc1NS(C)(=O)=O`, the fraction unbound at 24 h in series [1] is 0.2. Further, in series [2], the Papp A→B at 4 h amounted to 27 ×10⁻⁶ cm/s. In series [4], this molecule had a logD of 2.2.
For `C[C@@H](OC(=O)Nc1c(-c2ccc(NS(C)(=O)=O)cn2)nnn1C)c1ccccc1` the same measures were 0.27, 13 ×10⁻⁶ cm/s and 1.9.
As to `C[C@@H](OC(=O)Nc1c(-c2ccc(NS(C)(=O)=O)cn2)nnn1C)c1cccc(F)c1`, in series [1], the fraction unbound at 24 h amounted to 0.25. Also, the Papp A→B at 4 h in series [2] turned out to be 15 ×10⁻⁶ cm/s. In series [3], the EC50 came out at 522 nM. Moreover, the logD in series [4] was 1.9.
As to `C[C@@H](OC(=O)Nc1c(-c2ccc(NS(=O)(=O)CC#N)cc2)nnn1C)c1ccccc1Cl`, the EC50 in series [3] was determined as 32 nM. The molecule further showed a logD in series [4] of 2.2.
Consider `Cc1nc(-c2nnn(C)c2NC(=O)O[C@H](CF)c2ccccc2)ccc1NS(C)(=O)=O`, for which the fraction unbound at 24 h in series [1] came to 0.29. Moreover, in series [2], the Papp A→B at 4 h amounted to 17 ×10⁻⁶ cm/s. Besides, the EC50 in series [3] is 31 nM. This molecule also came in with a logD in series [4] of 1.9.
For `C[C@@H](OC(=O)Nc1c(-c2ccc(N(C)S(C)(=O)=O)cc2)nnn1C)c1ccccc1Cl`, in series [3], the EC50 is 890 nM. The logD in series [4] was 2.7.
Turning to `C[C@@H](OC(=O)Nc1c(-c2ccc(NC(=O)c3ccnc(C(F)(F)F)c3)cn2)nnn1C)c1cc(F)cnc1F`, the fraction unbound at 24 h in series [1] stood at 0.14. In addition, the Papp A→B at 4 h in series [2] stood at 4.6 ×10⁻⁶ cm/s. The same molecule returned a logD in series [4] of 2.7.
For `C[C@@H](OC(=O)Nc1c(-c2ccc(NC(=O)C34CC(C#N)(C3)C4)cn2)nnn1C)c1cc(F)cnc1F`, in series [1], the fraction unbound at 24 h amounted to 0.31. Moreover, in series [2], the Papp A→B at 4 h worked out at 8.3 ×10⁻⁶ cm/s. Further, the EC50 in series [3] is 51 nM. For the same molecule, the logD in series [4] was 2.
The matching figures for `C[C@@H](OC(=O)Nc1c(-c2ccc(NC(=O)[C@@H]3CC3(F)F)cn2)nnn1C)c1cc(F)cnc1F`: 0.35, 12 ×10⁻⁶ cm/s, 576 nM and 2.2.
The matching figures for `C[C@@H](OC(=O)Nc1c(-c2ccc(NC(=O)C34CC(F)(C3)C4)cn2)nnn1C)c1cc(F)cnc1F`: 0.33, 11 ×10⁻⁶ cm/s, 77 nM and 2.3.
The matching figures for `Cc1nc(-c2nnn(C)c2NC(=O)O[C@H](C)c2cc(F)cnc2F)ccc1NS(C)(=O)=O`: 0.15, 8.8 ×10⁻⁶ cm/s, 124 nM and 1.7.
With `CC(=O)Nc1ccc(-c2nnn(C)c2NC(=O)O[C@H](C)c2cc(F)cnc2F)nc1`, the fraction unbound at 24 h in series [1] was 0.36. In addition, in series [2], the Papp A→B at 4 h worked out at 7.7 ×10⁻⁶ cm/s. Besides, in series [3], the EC50 is 1350 nM. The same molecule yielded a logD in series [4] of 1.3.
The matching figures for `C[C@@H](OC(=O)Nc1c(-c2ccc(NC(=O)C3CC(F)(F)C3)cn2)nnn1C)c1cc(F)cnc1F`: 0.21, 15 ×10⁻⁶ cm/s, 21 nM and 2.4.
Regarding `C[C@@H](OC(=O)Nc1c(-c2ccc(NS(=O)(=O)C(C)(C)C)cc2)nnn1C)c1ccccc1Cl`, in series [3], the EC50 is above 10000 nM. For the same molecule, the logD in series [4] was 3.
Regarding `Cc1nc(-c2nnn(C)c2NC(=O)O[C@H](C)c2cc(F)cnc2Cl)ccc1NS(C)(=O)=O`, the fraction unbound at 24 h in series [1] stood at 0.13. Also, the Papp A→B at 4 h in series [2] amounted to 13 ×10⁻⁶ cm/s. Also, the EC50 in series [3] came to 83 nM. Besides, the pH-dependent lipophilicity (logD) in series [4] is 1.8.
Take `C[C@@H](OC(=O)Nc1c(-c2ccccc2)nnn1C)c1ccccc1Cl`: the logD in series [4] came to 3.2.
As for `Cc1nc(-c2nnn(C)c2NC(=O)O[C@H](C)c2ccccc2Cl)ccc1NS(C)(=O)=O`, the fraction unbound at 24 h in series [1] was 0.13. The Papp A→B at 4 h in series [2] amounted to 27 ×10⁻⁶ cm/s. For the same molecule, the EC50 in series [3] worked out at 11 nM. Moreover, the logD in series [4] was found to be 2.5.
As for `CNS(=O)(=O)c1ccc(-c2nnn(C)c2NC(=O)O[C@H](C)c2ccccc2Cl)cc1`, the EC50 in series [3] stood at 893 nM. In addition, the logD in series [4] stood at 2.6.
`Cc1nc(-c2nnn(C)c2NC(=O)O[C@H](C)c2cccc(F)c2)ccc1NS(C)(=O)=O`: the fraction unbound at 24 h in series [1] came to 0.22. Besides, in series [2], the Papp A→B at 4 h was 23 ×10⁻⁶ cm/s. Besides, in series [4], the logD turned out to be 2.2.
On to `Cc1nc(-c2nnn(C)c2NC(=O)O[C@@H](c2ccccc2)C(F)(F)F)ccc1NS(C)(=O)=O`, for which the fraction unbound at 24 h in series [1] came out at 0.2. In series [2], the Papp A→B at 4 h was found to be 18 ×10⁻⁶ cm/s. In series [3], the EC50 was determined as 45 nM. In series [4], this molecule gave a logD of 2.5.
In series [4], `C[C@@H](OC(=O)Nc1c(-c2ccc(S(=O)(=O)NC3CC3)cc2)nnn1C)c1ccccc1Cl` showed a logD of 2.9.
As for `C[C@@H](OC(=O)Nc1c(-c2ccc(NS(C)(=O)=O)cn2)nnn1C)c1ccccc1Cl`, the Papp A→B at 4 h in series [2] was determined as 19 ×10⁻⁶ cm/s. Also, the half-maximal effective concentration (EC50) in series [3] amounted to 30 nM. The logD in series [4] amounted to 2.2.
For `Cc1nc(-c2nnn(C)c2NC(=O)O[C@H](C)c2cc(F)ccc2F)ccc1NS(C)(=O)=O`, the fraction unbound at 24 h in series [1] was 0.19. In addition, the apical-to-basolateral permeability (Papp A→B) at 4 h in series [2] amounted to 20 ×10⁻⁶ cm/s. Also, in series [3], the EC50 is 953 nM. In series [4], this molecule gave a logD of 2.4.
For `C[C@@H](OC(=O)Nc1c(-c2ccc(NS(C)(=O)=O)cn2)nnn1C)c1cc(F)ccc1F` the same measures were 0.18, 16 ×10⁻⁶ cm/s, 122 nM and 2.1.
As for `C[C@@H](OC(=O)Nc1c(-c2ccc(N)cc2)nnn1C)c1ccccc1Cl`, the EC50 in series [3] is 417 nM. The same molecule returned a logD in series [4] of 2.3.
`Cc1ccc(C(=O)Nc2ccc(-c3nnn(C)c3NC(=O)O[C@H](C)c3cc(F)cnc3F)nc2)cn1`: the fraction unbound at 24 h in series [1] turned out to be 0.32. Further, the Papp A→B at 4 h in series [2] worked out at 7.2 ×10⁻⁶ cm/s. The EC50 in series [3] is 109 nM. This molecule registered a logD in series [4] of 1.7.
In turn, `C[C@@H](OC(=O)Nc1c(-c2ccc(S(N)(=O)=O)cc2)nnn1C)c1ccccc1Cl` yielded a logD in series [4] of 2.2.
Turning to `C[C@@H](OC(=O)Nc1c(-c2ccc(NC(=O)c3ccc(C(F)(F)F)nc3)cn2)nnn1C)c1cc(F)cnc1F`, the fraction unbound at 24 h in series [1] turned out to be 0.15. The Papp A→B at 4 h in series [2] was determined as 14 ×10⁻⁶ cm/s. The EC50 in series [3] turned out to be 25 nM. The molecule also returned a logD in series [4] of 2.7.
With `C[C@@H](OC(=O)Nc1c(-c2ccc(NS(C)(=O)=O)cn2)nnn1C)c1cc(F)cnc1Cl`, the fraction unbound at 24 h in series [1] amounted to 0.18. The Papp A→B at 4 h in series [2] was 5.5 ×10⁻⁶ cm/s. Moreover, the pH-dependent lipophilicity (logD) in series [4] came out at 1.7.

These data come from ChEMBL document CHEMBL6103545, “Discovery of GS-2278, a Potent and Selective LPAR1 Antagonist for the Treatment of Idiopathic Pulmonary Fibrosis” (J Med Chem, 2025).
